Data published in US20190054098A1, “AGENTS AND METHODS USING THEREOF FOR THE PREVENTION AND TREATMENT OF STEM CELLS SENESCENCE” (ECOLE POLYTECHNIQUE FEDERALE DE LAUSANNE (EPFL), priority 2015, published 2019).

Tested on: C2C12 myoblasts
Experiment: Expression of UPRmt markers, prohibitins and cell cycle regulators in C2C12 myoblasts treated with TAP (FIG. 3)
Assay type: cell-based
Conditions: 50 μg/ml TAP, different treatment periods (FIG. 3)
Experimental: Total RNA was extracted from MuSCs by sorting cells directly into TriPure RNA isolation reagent (Roche) or from cultured C2C12 myoblasts using TriPure reagent according to the product manual. Total RNA was transcribed to cDNA using QuantiTect Reverse Transcription Kit (Qiagen). Expression of selected genes was analyzed using the LightCycler480 system (Roche) and LightCycler® 480 SYBR Green I Master reagent (Roche). The acidic ribosomal protein 36b4 gene (ribosomal protein, large, P0, Rplp0) was used as housekeeping reference. C2C12 cells were lysed in a buffer composed of 50 mM Tris, 150 mM KCl, EDTA 1 mM, NP40 1%, nicotinamide 5 mM, sodium butyrate 1 mM and protease inhibitors cocktail (Roche) at pH 7.4. Proteins were separated by SDS-PAGE and transferred onto nitrocellulose membranes. Blocking and antibody incubations were performed in 3% BSA. The following primary antibodies were used: anti-cleavage caspase 3 (Cell Signalling); Anti-γH2AX (Millipore); anti-β-actin (Sigma). All secondary antibodies were from Jackson Immunoresearch. Antibody detection reactions were developed by enhanced chemiluminescence (Advansta, CA, USA) using x-ray films or imaged using the c300 imaging system (Azure Biosystems). The following primary antibodies were used: anti-HSP60 (Enzo Life Science); anti-PHB (Biolegend); anti-PHB2 (Santa Cruz); anti-CKD4 (Novus biologicals); anti-CCND1 (Santa Cruz); anti-CCND3 (Santa Cruz); anti-HSP90 (BD Biosciences); HSP70 (Abcam); anti-MT-CO1 (Biolegend); anti-ATP5A (Biolegend); anti-Grp78 (Abcam); and anti-CLPP (Sigma).

CS(=O)(=O)c1ccc([C@@H](O)[C@@H](CO)NC(=O)C(Cl)Cl)cc1 [thiamphenicol]
UPR^mt induction: induction | cell cycle gene expression / cell cycle regulators: induced | mitonuclear imbalance: induces | prohibitins expression: induced | UPR^mt induction (listed as TAP): induces | cell cycle gene expression / cell cycle regulators (listed as TAP): induces
